Test results reported in patent US9023789B2, “Amylin analogs and pharmaceutical compositions thereof” (Novo Nordisk A/S, priority 2012, dated 2015).
Converted amounts (≈) assume the structure as drawn. Read-outs that look alike come from different tables or passages of the source. Numbered stars: 1 amine (or outer) side, 2 acyl side, 3 side chain; on linkers, the order of the positions; unused ones are H or OH. Bridge positions count the residues as written; N and C are the ends. Peptide text beside a SMILES is read from it. * marks the point of attachment. C20 diacid = O=C(O)CCCCCCCCCCCCCCCCCCC(=O)*; γGlu = O=C(O)[C@H](CCC(=O)[*:2])N[*:1]

What was measured:
[1] = target: T1, human amylin 3(a) receptor (human calcitonin receptor + RAMP-3) in BHK570 cells (Homo sapiens, UniProt O60896+P30988); assay: ASSAY (II)a functional assay, human amylin receptor (CRE luciferase); format: cell-based
T1 construct: expressed in transfected cells
Outline: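 Read-out: CRE-driven luciferase luminescence, single photon counting, after 30 min at room temperature with LucLite. BHK cells expressed calcitonin receptor alone or with RAMP-3 (amylin 3(a)). Cells were stimulated 3 h at 37° C in DMEM, 10% FBS, 10 mM Hepes, pH 7.4.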

[2] = ASSAY (IV) determination of solubility; format: physicochemical
Outline: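 Solubility measured by UPLC of supernatant after centrifugation, following 18 h at room temperature. Peptide ([…] in water) was diluted 1:1 into 100 mM glycylglycine (pH 3.0, 4.0, 5.0) or bistrispropane (pH 6.0-8.0).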

[3] = target: T2, human amylin receptor (membranes from Amylin 3(a)/CRE-luc cells) (Homo sapiens, UniProt O60896+P30988); assay: ASSAY (V) binding to the human amylin receptor (SPA, 125I-rat amylin);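 also: competition binding of cell membranes (35 ng/µL) mixed with SPA beads in 384-well plates at 40 µL total volume, read by scintillation counting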
T2 construct: expressed in transfected cells
T2 sequence (P30988 25-474): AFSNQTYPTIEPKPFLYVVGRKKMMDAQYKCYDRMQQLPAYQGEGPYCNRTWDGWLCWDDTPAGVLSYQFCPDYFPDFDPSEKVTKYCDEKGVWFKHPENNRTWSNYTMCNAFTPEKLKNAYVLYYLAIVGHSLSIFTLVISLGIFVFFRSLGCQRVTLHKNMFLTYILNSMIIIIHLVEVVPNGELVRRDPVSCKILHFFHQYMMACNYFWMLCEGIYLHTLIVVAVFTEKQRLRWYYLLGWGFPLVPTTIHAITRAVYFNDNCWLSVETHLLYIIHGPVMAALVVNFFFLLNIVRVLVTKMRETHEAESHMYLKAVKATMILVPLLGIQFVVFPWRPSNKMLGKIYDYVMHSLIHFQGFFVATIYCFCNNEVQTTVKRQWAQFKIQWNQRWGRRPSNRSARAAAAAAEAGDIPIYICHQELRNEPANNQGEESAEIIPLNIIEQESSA
T2 sequence (O60896 24-148 partner): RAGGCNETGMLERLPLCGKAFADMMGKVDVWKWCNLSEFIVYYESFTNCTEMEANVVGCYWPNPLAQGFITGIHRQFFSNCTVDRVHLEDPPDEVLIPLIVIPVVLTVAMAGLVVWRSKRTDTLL

rat calcitonin receptor = target: T3, rat calcitonin receptor (Rattus norvegicus, UniProt P32214); assay: ASSAY (VIII) binding to the rat calcitonin receptor; settings: Table 7, read-out: rCTR bind IC50
T3 construct: expressed in transfected cells; host or cells: BHK tk'ts 13 (transient, FuGENE 6), membranes
T3 sequence (P32214 25-479 isoform P32214-2 limits assumed): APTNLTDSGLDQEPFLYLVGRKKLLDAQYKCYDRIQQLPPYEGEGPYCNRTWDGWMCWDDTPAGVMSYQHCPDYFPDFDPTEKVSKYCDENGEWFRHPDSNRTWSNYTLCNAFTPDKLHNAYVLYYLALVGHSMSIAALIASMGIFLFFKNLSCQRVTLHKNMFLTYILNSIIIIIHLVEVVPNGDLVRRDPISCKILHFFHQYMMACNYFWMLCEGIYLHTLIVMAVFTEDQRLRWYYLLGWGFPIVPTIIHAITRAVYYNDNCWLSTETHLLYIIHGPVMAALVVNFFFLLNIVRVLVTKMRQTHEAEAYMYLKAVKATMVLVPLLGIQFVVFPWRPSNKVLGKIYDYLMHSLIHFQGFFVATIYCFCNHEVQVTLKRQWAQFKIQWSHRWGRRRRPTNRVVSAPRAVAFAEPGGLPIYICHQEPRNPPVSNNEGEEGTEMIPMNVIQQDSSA
Outline: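 BHK tk′ts 13 cells, transient rat calcitonin receptor transfection; DMEM + 10% FBS; harvest ~48 h post-transfection; membrane prep.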

[4] = hCTR funct. EC50 divided by hAmylin-R funct. EC50
[5] = hCTR funct. EC50 over hAmylin-R funct. EC50
[6] = human functional selectivity: hCTR funct. EC50 / hAmylin-R funct. EC50
[7] = bistrispropane buffer, pH 6.5, read-out: Solubility pH 6.5 Concentration
[8] = bistrispropane buffer, pH 7.5, read-out: Solubility pH 7.5 Concentration
[9] = bistrispropane buffer, pH 6.0, read-out: Solubility pH 6.0 Concentration
[10] = bistrispropane buffer, pH 7.0, read-out: Solubility pH 7.0 Concentration
[11] = bistrispropane buffer, pH 8.0, read-out: Solubility pH 8.0 Concentration
[12] = glycylglycine buffer, pH 3.0, read-out: Solubility pH 3.0 Concentration
[13] = glycylglycine buffer, pH 4.0, read-out: Solubility pH 4.0 Concentration
[14] = glycylglycine buffer, pH 5.0, read-out: Solubility pH 5.0 Concentration
[15] = Table 5, selectivity, hCTR bind IC50 / hAmylin-R bind IC50
[16] = Table 5a, selectivity, hCTR bind IC50 / hAmylin-R bind IC50
[17] = Table 5b, selectivity, hCTR bind IC50 / hAmylin-R bind IC50
[18] = Table 5c, selectivity, hCTR bind IC50 / hAmylin-R bind IC50
[19] = Table 7, human binding selectivity, included for comparison
[20] = Table 7a (preferred compounds), human binding selectivity, included for comparison
[21] = ratio of human calcitonin receptor binding IC50 to human amylin receptor binding IC50

Structure (SMILES) | Ratio hCT/hAmylin funct. [1, 4] | Ratio hCT/hAmylin funct. [1, 5] | Ratio hCT/hAmylin funct. [1, 6] | solubility at 18 h [2, 7] [µM] | solubility at 18 h [2, 8] [µM] | solubility at 18 h [2, 9] [µM] | solubility at 18 h [2, 10] [µM] | solubility at 18 h [2, 11] [µM] | solubility at 18 h [2, 12] [µM] | solubility at 18 h [2, 13] [µM] | solubility at 18 h [2, 14] [µM] | Ratio hCT/hAmylin binding [3, 15] | Ratio hCT/hAmylin binding [3, 16] | Ratio hCT/hAmylin binding [3, 17] | Ratio hCT/hAmylin binding [3, 18] | Ratio hCT/hAmylin binding [3, 19] | Ratio hCT/hAmylin binding [3, 20] | Ratio hCT/hAmylin binding [3, 21] | IC50 (rat calcitonin receptor) [nM] | other results
CC[C@H](C)[C@H](NC(=O)[C@H](C)NC(=O)CNC(=O)[C@H](Cc1ccccc1)NC(=O)[C@H](CC(N)=O)NC(=O)[C@@H]1CCCN1C(=O)[C@H](CO)NC(=O)[C@H](CO)NC(=O)[C@H](Cc1c[nH]cn1)NC(=O)[C@H](CCCNC(=N)N)NC(=O)[C@H](CC(C)C)NC(=O)[C@H](Cc1ccccc1)NC(=O)[C@H](CC(N)=O)NC(=O)[C@H](C)NC(=O)[C@H](CC(C)C)NC(=O)[C@H](CCCNC(=N)N)NC(=O)[C@H](CCC(N)=O)NC(=O)[C@@H](NC(=O)[C@H](C)NC(=O)[C@@H]1CSSC[C@H](NC(=O)[C@@H](N)CCCCNC(=O)COCCOCCNC(=O)COCCOCCNC(=O)CC[C@H](NC(=O)CCCCCCCCCCCCCCCCCCC(=O)O)C(=O)O)C(=O)N[C@@H](CC(N)=O)C(=O)N[C@@H]([C@@H](C)O)C(=O)N[C@@H](C)C(=O)N[C@@H]([C@@H](C)O)C(=O)N1)[C@@H](C)O)C(=O)N1CCC[C@H]1C(=O)N[C@@H](CO)C(=O)N[C@@H](CO)C(=O)N[C@H](C(=O)N1CCC[C@H]1C(=O)N[C@H](C(=O)NCC(=O)N[C@@H](CO)C(=O)N[C@@H](CC(N)=O)C(=O)N[C@H](C(=O)N[C@@H](Cc1ccc(O)cc1)C(N)=O)[C@@H](C)O)C(C)C)[C@@H](C)O [Example 96] | 21.0 | 21.0 | 21.0 | ≥ 200 | ≥ 200 | ≥ 200 | ≥ 200 | ≥ 200 | ≥ 200 | ≥ 200 | ≥ 200 | 79.6 | 79.6 | 79.6 | 79.6 | 79.6 | 79.6 | 79.6 | 62.2 | –
CC[C@H](C)[C@H](NC(=O)[C@H](C)NC(=O)CNC(=O)[C@H](Cc1ccccc1)NC(=O)[C@H](CC(N)=O)NC(=O)[C@@H]1CCCN1C(=O)[C@H](CO)NC(=O)[C@H](CO)NC(=O)[C@H](Cc1c[nH]cn1)NC(=O)[C@H](CCCNC(=N)N)NC(=O)[C@H](CC(C)C)NC(=O)[C@H](Cc1ccccc1)NC(=O)[C@H](CC(N)=O)NC(=O)[C@H](C)NC(=O)[C@H](CC(C)C)NC(=O)[C@H](CCCNC(=N)N)NC(=O)[C@H](CCC(N)=O)NC(=O)[C@@H](NC(=O)[C@H](C)NC(=O)[C@@H]1CSSC[C@H](NC(=O)[C@H](CCCNC(=N)N)NC(=O)CNC(=O)CC[C@H](NC(=O)CCCCCCCCCCCCCCCCCCC(=O)O)C(=O)O)C(=O)N[C@@H](CC(N)=O)C(=O)N[C@@H]([C@@H](C)O)C(=O)N[C@@H](C)C(=O)N[C@@H]([C@@H](C)O)C(=O)N1)[C@@H](C)O)C(=O)N1CCC[C@H]1C(=O)N[C@@H](CO)C(=O)N[C@@H](CO)C(=O)N[C@H](C(=O)N[C@@H](CC(N)=O)C(=O)N[C@H](C(=O)NCC(=O)N[C@@H](CO)C(=O)N[C@@H](CC(N)=O)C(=O)N[C@H](C(=O)N[C@@H](Cc1ccc(O)cc1)C(N)=O)[C@@H](C)O)C(C)C)[C@@H](C)O [Example 46] ({C20 diacid-γGlu}-GRCNTATCATQRLANFLRHSSPNFGAIPSSTNVGSNTY-NH2; disulfide 3-8 (inferred)) | 10.2 | 10.2 | 10.2 | ≥ 200 | 106 (≈ 473 µg/mL) | ≥ 200 | 186 (≈ 831 µg/mL) | 145 (≈ 648 µg/mL) | ≥ 200 | ≥ 200 | ≥ 200 | 48.9 | 48.9 | 48.9 | 48.9 | 48.9 | 48.9 | 48.9 | 46.8 | –
CC[C@H](C)[C@H](NC(=O)[C@H](C)NC(=O)CNC(=O)[C@H](Cc1ccccc1)NC(=O)[C@H](CC(N)=O)NC(=O)[C@@H]1CCCN1C(=O)[C@H](CO)NC(=O)[C@H](CO)NC(=O)[C@H](Cc1c[nH]cn1)NC(=O)[C@H](CCCNC(=N)N)NC(=O)[C@H](CC(C)C)NC(=O)[C@H](Cc1ccccc1)NC(=O)[C@H](CC(N)=O)NC(=O)[C@H](C)NC(=O)[C@H](CC(C)C)NC(=O)[C@H](CCCNC(=N)N)NC(=O)[C@H](CCC(N)=O)NC(=O)[C@@H](NC(=O)[C@H](C)NC(=O)[C@@H]1CSSC[C@H](NC(=O)[C@@H](N)CCCCNC(=O)COCCOCCNC(=O)COCCOCCNC(=O)CC[C@H](NC(=O)CCCCCCCCCCCCCCCCCCC(=O)O)C(=O)O)C(=O)N[C@@H](CC(N)=O)C(=O)N[C@@H]([C@@H](C)O)C(=O)N[C@@H](C)C(=O)N[C@@H]([C@@H](C)O)C(=O)N1)[C@@H](C)O)C(=O)N1CCC[C@H]1C(=O)N[C@@H](CO)C(=O)N[C@@H](CO)C(=O)N[C@H](C(=O)N[C@@H](CC(N)=O)C(=O)N[C@H](C(=O)NCC(=O)N[C@@H](Cc1c[nH]cn1)C(=O)N[C@@H](CC(N)=O)C(=O)N[C@H](C(=O)N[C@@H](Cc1ccc(O)cc1)C(N)=O)[C@@H](C)O)C(C)C)[C@@H](C)O [Example 97] | 33.0 | 33.0 | 33.0 | ≥ 200 | 88 (≈ 415 µg/mL) | ≥ 200 | ≥ 200 | 43 (≈ 203 µg/mL) | ≥ 200 | ≥ 200 | ≥ 200 | 103.7 | 103.7 | 103.7 | 103.7 | 103.7 | 103.7 | 103.7 | 159 | Solubility pH 6.5 Concentration ([2]; pH 6.5 (Table 9a)): ≧200 μM; Solubility pH 7.0 Concentration ([2]; pH 7.0 (Table 9a)): ≧200 μM
